From the supplement of paper PMC10307832

What was measured:
Experiment in all cases: relative viability (nuclei count vs DMSO), 5 days (fraction); higher = more cells survive
[1] = compound: CC1=CC(=NN1)NC2=CC(=NC(=N2)/C=C/C3=CC=CC=C3)N4CCN(CC4)C + O=C(CCCCCCC(=O)Nc1ccccc1)NO [Vorinostat] (partner 1 µM)
Outline: (§1)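 Lung cancer cell lines, seeded in 1536-well plates, were treated the following day by pin tool with a single drug or with five library-drug doses (not always all listed) in √10 steps on top of a fixed anchor-drug dose. Cells were fixed and nuclei stained in one step after 5 days, and nuclei were counted. Relative viability is the nuclei count for treated wells divided by that for vehicle wells, reported as medians of duplicate plates.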

[2] = compound: CC1=CC(=NN1)NC2=CC(=NC(=N2)/C=C/C3=CC=CC=C3)N4CCN(CC4)C + CS(=O)(=O)CCNCc1ccc(-c2ccc3ncnc(Nc4ccc(OCc5cccc(F)c5)c(Cl)c4)c3c2)o1 [Lapatinib] (partner 2 µM)
Outline: as §1

Obatoclax + AZD7762 = compound: COC1=CC(c2cc3ccccc3[nH]2)=N/C1=C\c1[nH]c(C)cc1C [Obatoclax] + NC(=O)Nc1cc(-c2cccc(F)c2)sc1C(=O)N[C@H]1CCCNC1 [AZD7762] (partner 0.2 µM)
Outline: as §1

Obatoclax + Vorinostat = compound: COC1=CC(c2cc3ccccc3[nH]2)=N/C1=C\c1[nH]c(C)cc1C [Obatoclax] + O=C(CCCCCCC(=O)Nc1ccccc1)NO [Vorinostat] (partner 1 µM)
Outline: as §1

Cell Line	relative viability ([1]; first compound 0.08 µM)	relative viability ([1]; first compound 0.253 µM)	relative viability ([1]; first compound 0.8 µM)	relative viability ([1]; first compound 2.53 µM)	relative viability ([1]; first compound 8 µM)	relative viability ([2]; first compound 0.08 µM)	relative viability ([2]; first compound 0.253 µM)	relative viability ([2]; first compound 0.8 µM)	relative viability ([2]; first compound 2.53 µM)	relative viability ([2]; first compound 8 µM)	relative viability (Obatoclax + AZD7762; first compound 0.01 µM)	relative viability (Obatoclax + AZD7762; first compound 0.03162 µM)	relative viability (Obatoclax + AZD7762; first compound 0.1 µM)	relative viability (Obatoclax + AZD7762; first compound 0.3162 µM)	relative viability (Obatoclax + AZD7762; first compound 1 µM)	relative viability (Obatoclax + Vorinostat; first compound 0.01 µM)	relative viability (Obatoclax + Vorinostat; first compound 0.03162 µM)	relative viability (Obatoclax + Vorinostat; first compound 0.1 µM)	relative viability (Obatoclax + Vorinostat; first compound 0.3162 µM)	relative viability (Obatoclax + Vorinostat; first compound 1 µM)
LXF-289	0.742	0.759	0.603	0.252	0.113	0.918	0.969	0.839	0.487	0.574	1.03	1.07	1.14	1.1	1.09	0.714	0.725	0.798	0.775	0.601
HCC-44	1.08	1.13	1.05	0.904	0.36	1.02	1.07	0.955	0.85	0.101	0.95	1.03	1.14	1.01	0.978	1.04	1.06	1.05	1.1	1.03
HARA	0.545	0.689	0.459	0.26	0.0694	0.776	0.874	0.611	0.163	0.158	0.379	0.237	0.397	0.173	0.244	0.553	0.392	0.566	0.441	0.605
201T	1	1.13	0.997	0.879	0.449	1.02	1.07	1.04	0.946	0.915	0.608	0.601	0.579	0.614	0.702	0.954	0.834	0.968	0.959	1.06
LC-2-ad	0.709	0.751	0.467	0.186	0.15	0.701	0.928	0.899	0.0949	0.0594	0.857	0.888	0.777	0.836	0.438	0.677	0.669	0.647	0.658	0.445
NCI-H596	0.557	0.633	0.577	0.42	0.139	0.976	1.09	0.912	0.505	0.286	1.06	1.1	0.773	0.443	0.498	0.555	0.467	0.543	0.585	0.296
NCI-H1437	0.631	0.904	0.819	0.394	0.201	0.853	0.909	0.833	0.347	0.105	1.12	1.16	1.03	1.08	0.895	0.834	0.808	0.791	0.696	0.589
NCI-H727	0.86	0.882	1.32	1.02	0.523	0.744	0.525	0.805	0.494	0.193	0.747	0.552	0.827	0.573	0.573	1.18	1.14	1.29	1.05	1.3
PC-3 [JPC-3]	0.766	0.876	0.814	0.543	0.333	0.445	0.46	0.466	0.408	0.368	0.825	0.834	0.808	0.607	0.419	0.835	0.555	0.767	0.527	0.439
NCI-H1944	0.581	0.565	0.394	0.286	0.16	0.837	0.931	0.865	0.655	0.29	0.481	0.695	0.492	0.551	0.494	0.519	0.484	0.57	0.561	0.527
LU99A	0.481	0.434	0.425	0.182	0.0957	0.958	0.943	0.728	0.252	0.125	0.379	0.359	–	0.146	0.135	0.557	0.459	–	0.463	0.224
H3255	0.746	0.834	0.872	0.831	0.525	0.244	0.211	0.478	0.203	0.123	0.874	0.848	0.725	0.785	0.762	0.975	0.719	–	0.823	0.858
NCI-H1734	0.745	0.757	0.694	0.22	0.187	0.968	1.06	0.958	0.577	0.145	0.513	0.499	0.456	0.472	0.238	0.819	0.887	0.814	0.741	0.31
NCI-H1915	0.493	0.584	0.467	0.376	0.116	0.972	1.01	0.954	0.453	0.514	0.697	0.573	0.648	0.752	0.562	0.543	0.426	0.501	0.481	0.538
NCI-H1651	0.349	0.529	0.464	0.497	0.145	0.924	0.941	0.803	0.313	0.123	0.488	0.4	0.421	0.431	0.439	0.587	0.491	0.512	0.384	0.595
HOP-62	0.603	0.566	0.637	0.387	0.129	1.06	0.973	0.956	0.558	0.307	0.402	0.519	0.515	0.59	0.508	0.573	0.575	0.639	0.741	0.403
CAL-12T	0.686	0.573	0.639	0.428	0.126	0.654	0.778	0.663	0.324	0.141	0.616	0.554	0.531	0.518	0.294	0.847	0.883	1.05	0.521	0.142

Cell Line	relative viability ([1]; first compound 0.08 µM)	relative viability ([1]; first compound 0.253 µM)	relative viability ([1]; first compound 0.8 µM)	relative viability ([1]; first compound 2.53 µM)	relative viability ([1]; first compound 8 µM)	relative viability ([2]; first compound 0.08 µM)	relative viability ([2]; first compound 0.253 µM)	relative viability ([2]; first compound 0.8 µM)	relative viability ([2]; first compound 2.53 µM)	relative viability ([2]; first compound 8 µM)	relative viability (Obatoclax + AZD7762; first compound 0.01 µM)	relative viability (Obatoclax + AZD7762; first compound 0.03162 µM)	relative viability (Obatoclax + AZD7762; first compound 0.1 µM)	relative viability (Obatoclax + AZD7762; first compound 0.3162 µM)	relative viability (Obatoclax + AZD7762; first compound 1 µM)	relative viability (Obatoclax + Vorinostat; first compound 0.01 µM)	relative viability (Obatoclax + Vorinostat; first compound 0.03162 µM)	relative viability (Obatoclax + Vorinostat; first compound 0.1 µM)	relative viability (Obatoclax + Vorinostat; first compound 0.3162 µM)	relative viability (Obatoclax + Vorinostat; first compound 1 µM)
NCI-H3122	1.03	0.977	0.989	0.879	0.511	0.971	0.859	1.03	0.925	0.897	1.03	0.962	0.971	0.949	1	0.981	0.783	1.03	0.991	1.07
NCI-H1395	0.702	0.669	0.675	0.375	0.236	1.22	1.03	0.932	0.456	0.275	0.396	0.395	0.393	0.375	0.348	0.996	0.643	0.642	0.635	0.596
PC-14	0.673	0.732	0.491	0.0475	0.041	0.334	0.374	0.278	0.248	0.0886	0.304	0.328	0.269	0.339	0.112	0.625	0.736	0.696	0.341	0.0549
BEN	0.544	0.53	0.563	0.47	0.334	0.75	0.668	0.742	0.326	0.229	0.762	0.607	0.544	0.734	0.704	0.594	0.486	0.521	0.556	0.621
EPLC-272H	0.472	0.488	0.401	0.141	0.0816	0.893	0.99	0.868	0.462	0.157	0.236	0.145	0.155	0.192	0.229	0.567	0.561	0.399	0.175	0.176
LK-2	0.254	0.155	0.283	0.223	0.126	0.885	0.852	0.852	0.604	0.181	0.456	0.374	0.444	–	0.568	0.3	0.247	0.253	0.296	0.411
HCC-827	0.282	0.908	0.823	0.773	0.215	0.201	0.168	0.212	0.146	0.124	0.244	0.234	0.215	0.202	0.261	0.879	0.726	0.711	0.25	0.82
NCI-H1993	0.737	0.734	1.03	0.238	0.275	0.76	–	0.772	0.605	0.561	0.769	0.789	0.898	0.818	0.536	0.907	0.847	0.857	1.08	0.812
NCI-H647	0.58	0.626	0.391	0.128	0.0534	1.02	1.29	1.08	0.0749	0.0425	0.443	0.606	0.207	0.253	0.114	0.667	0.523	0.652	0.304	0.161
NCI-H460	0.673	0.755	0.382	0.0404	0.0188	0.909	0.952	0.943	0.0124	0.0122	0.651	0.537	–	0.617	0.11	0.706	0.717	0.692	0.103	0.0463
EMC-BAC-2	0.416	0.428	0.354	0.171	0.0976	0.905	0.923	0.811	0.689	0.136	1.12	1.11	0.963	1.02	0.874	0.437	0.358	–	0.446	0.405
NCI-H23	0.485	0.756	0.457	0.141	0.0948	0.981	1.37	1	0.46	0.139	0.271	0.313	0.192	0.219	0.158	0.593	0.755	0.569	0.653	0.316
A-427	0.943	0.904	0.822	0.334	0.212	1.22	1.05	0.957	0.542	0.513	0.746	0.757	0.496	0.467	0.441	0.839	0.836	0.741	0.835	0.664
ABC-1	1.01	1.19	1.31	0.392	0.225	0.957	1.15	1.23	1.13	0.453	0.639	0.749	–	0.817	0.839	1.25	1.08	0.869	1.17	0.933
NCI-H322M	0.881	0.948	0.891	0.31	0.303	0.56	0.67	0.507	0.321	0.208	0.538	0.556	0.549	0.399	0.4	0.845	0.799	1.2	0.966	0.945
NCI-H2085	0.826	0.95	0.822	0.322	0.366	0.633	0.804	0.841	0.452	0.309	0.932	0.991	0.952	0.621	0.299	0.748	0.776	0.669	0.787	0.342
